Experiments:
HDL lipid uptake = HDL lipid uptake in vivo after DiI-HDL injection in estrogen-treated rats; parameters: species or system rat; conditions: DiI-HDL 800 μg protein/kg into jugular vein, 1 hour
Procedure: For analysis of HDL lipid uptake in vivo, rats were anesthetized with nembutal or metafane before injection of DiI-HDL (800 μg protein/kg) into the left jugular vein. 1 hour later the anesthetized animals were perfused with oxygenated HBSS. Frozen sections (12 μm thick) of sucrose-infiltrated tissues were prepared. Tissue sections were viewed and photographed with a Zeiss photomicroscope III with the appropriate filter package.

SR-BI = experiment: Immunoblot of SR-BI expression in tissues of estrogen-treated rats; assay type: in vivo, rat
Procedure: Tissues of estrogen-treated rats were screened for expression of SR-BI as described above following treatment of rats with 17-α-ethylenyl estradiol (estrogen). The rats were treated for five consecutive days with subcutaneous injections of 5 mg/kg 17-α-ethylenyl estradiol in propylene glycol or with propylene glycol alone (sham-injected).

LDL receptor = experiment: Immunoblot of LDL receptor expression in estrogen-treated rats; assay type: in vivo; conditions: rat, liver
[1] = system: SR-BI KO and wild-type female mice; experiment: Fertility of female mice mated with wild-type males; assay type: in vivo
Procedure: (§1) • Lipoprotein analysis. Plasma, collected from Avertin anesthetized mice, was size fractionated by FPLC, and the total cholesterol in each fraction or in unfractionated plasma was determined as described previously (Rigotti, A., et al. 1997 Proc. Natl. Acad. Sci. USA. 94:12610–12615) or by using a commercial kit (Wako Chemical USA Inc., Richmond, Va., USA). For apoA-I KO mice, 500 μl of pooled plasma was used for FPLC analyses. • Animals. […] Opinl Lipidol. 11:123-131 (2000)), apoA-I KO (Kozarsky, et al., Nature 387414–417 (1997)) (C57BL/6; The Jackson Laboratory, Bar Harbor, Me., USA), and RAG-2 KO (mixed C57BL/6×129×BALB/c background; gift from Jianzhu Chen, Massachusetts Institute of Technology). Double SR-BI/apoA-I KO and SR-BI/RAG-2 KO mice were produced by (a) mating SR-BI KO males with apoA-I KO or RAG-2-KO females, (b) transferring the resulting embryos into Swiss Webster recipients, and (c) intercrossing the double heterozygous offspring.
Colonies were maintained by crossing double- KO males with females heterozygous for the SR-BI null mutation and homozygous for the apoA-I or RAG-2 mutation to optimize the low yield of SR-BI homozygotes. It has been possible to obtain only a few homozygous null SR-BI KO mice on an essentially pure C57BL/6 background (backcrossed nine times to pure C57BL/6 mice). Experiments with these (n=3; 4- month matings, no litters) and additional mixed background SR-BI KO mice (n=19) confirmed the extremely low fertility of female SR-BI KO mice. PCR was used for genotyping the various mutant mouse lines. The primers for analyses were as follows: for SR-BI, the primers were as described by Rigotti, et al., Proc. Natl. Acad. Sci. USA 94:12610–12615 (1997); for apoA-I, the following set of four primers were used: 5′ -[…]-3′ (SEQ ID NO:8), 5′-[…]-3′(SEQ ID NO:9), 5′-[…]-3′ (SEQ ID NO:10), and 5′-[…]-3 (SEQ ID NO:11)′ (sequences and protocols originally from the Jackson Laboratories), or primers 5′-[…]-3″ (SEQ ID NO: 12) and 5′-[…]-3′(SEQ ID NO:13); and for RAG-2, the primers were 5′-[…]-3″(SEQ ID NO:14) and 5′-[…]-3″ (SEQ ID NO:15) (kindly provided by Charles Whitehurst, Massachusetts Institute of Technology). All animal studies were approved by the Massachusetts Institute of Technology Committee on Animal Care. To test the fertility of genetically, surgically, or pharmacologically manipulated female mice, virgin females were housed continuously with wild-type males, and numbers of litters and pups were counted during the mating period. […] Otherwise shorter 1- to 2-month mating periods were used when the fertile females produced litters relatively quickly. • Ovary transplantation. Donor SR-BI KO or control wild-type mice (5–6 weeks of age) were sacrificed by cervical dislocation, and the ovaries were removed. Hosts (RAG-2 KO mice), 4–6 weeks of age, were anesthetized with 2.5% Avertin (intraperitoneally), and ovary transfer surgery was performed. In brief, ovaries of the host mice were removed from the surrounding ovarian bursa by cutting the side opposite to the ovarian hilus. Ovaries from the donor mice were then inserted into the ovarian bursa and the bursa closed with Vetbond tissue adhesive (3M Animal Care Products, St. Paul, Minn., USA). In sham ovary transplants (n=5), ovaries of SR-BI KO mice were removed and reinserted into the same mouse (either unilaterally when the contralateral oviduct was cut, n=1, or bilaterally, n=4). […]

[2] = Plasma total cholesterol and FPLC lipoprotein profile of PROBUCOL-fed mice; assay type: in vivo; conditions: for Reduction of plasma cholesterol levels: 0.5% PROBUCOL chow; for Average plasma total cholesterol (±SEM): 0.5% PROBUCOL-enriched chow
Procedure: as §1

[3] = estrogen-treated versus control rats
[4] = rat, 5 mg/kg subcutaneous for five consecutive days, versus sham-injected
[5] = PROBUCOL-fed SR-BI KO females, n=14, 1- to 2-month mating

Compound: 17-α-ethylenyl estradiol [estrogen]
- DiI-HDL fluorescence in the ovaries (HDL lipid uptake): elevated levels
- Uptake of lipid into adrenal tissues (HDL lipid uptake): dramatically increased
- SR-BI expressed in the liver (SR-BI; [3]): significantly reduced levels
- SR-BI in the ovaries (SR-BI; [3]): elevated levels
- SR-BI expression in adrenal membranes (SR-BI; [4]): upregulation of SR-BI
- SR-BI levels in tissues showing trace signal (lung, testes, skin) (SR-BI; [4]): no change in SR-BI levels
- SR-BI expression (immunoblot compared with LDL receptor) (SR-BI; rat, estrogen-treated, liver): dramatically downregulated
- LDL receptor expression (LDL receptor): tremendous upregulation

Compound: CC(C)(Sc1cc(C(C)(C)C)c(O)c(C(C)(C)C)c1)Sc1cc(C(C)(C)C)c(O)c(C(C)(C)C)c1 [PROBUCOL™, 4,4′-(isopropylidenedithio) bis(2,6-di-tert-butylphenol)]
- Average time from mating to delivery ([1]; PROBUCOL-fed SR-BI KO females): 28.4 days
- Average litter size [1, 5]: 5.7
- Percentage of females producing litters [1, 5]: 93%
- Average litter size ([1]; PROBUCOL-fed wild-type females, n=9, 1- to 2-month mating): 5.3
- Restoration of fertility ([1]; SR-BI KO females, treatment began 1–3.5 weeks before mating and continued throughout): completely restored fertility
- Reduction of plasma cholesterol levels ([2]; SR-BI KO mice): approximately 49%
- Average plasma total cholesterol (±SEM) ([2]; SR-BI KO mice, n=14): 107.8 ± 6.3 mg/dL
- Effect on apparent sizes of the HDLs ([2]; wild-type and SR-BI KO mice, FPLC): without substantially altering the apparent sizes of the HDLs
- Reduction of plasma cholesterol levels ([2]; wild-type mice): approximately 67%
- Average plasma total cholesterol (±SEM) ([2]; wild-type mice, n=9): 33.6 ± 3.4 mg/dL

From patent US7208467B2, “Lipid-altering compositions for the treatment of infertility” (priority 2002, dated 2007)
